Reference: US20180098954A1, “AMELIORATING AGENT FOR EXERCISE-INDUCED GASTROINTESTINAL DISORDERS” (AJINOMOTO CO., INC., priority 2015, published 2018)

Tests used:
CD2F1 mice [1] = experiment: gastrointestinal tract permeability of FD4 (FITC-dextran) after 4 hr running in a hamster wheel; type: in vivo; conditions: male CD2F1 mice, FD4 500 mg/kg orally
Description: It is known that high molecular weight substances that are not usually absorbed from the gastrointestinal tract penetrate the intestine and enter the blood when the barrier function of the gastrointestinal tract is declined (FIG. 1). Therefore, the improving effect of cystine on exercise-induced decline in gastrointestinal tract barrier function was studied by the following test. […] According to the method described in Cani et al., Gut 2009, 58(8) : 1091-1103, which is incorporated herein by reference in its entirety, FD4 concentration that leaked into the blood from the gastrointestinal tract was calculated by measuring the fluorescence intensity in the blood, based on which the gastrointestinal tract permeability of FD4 was evaluated (see FIG. 2). To be specific, blood was collected from the mice under isoflurane anesthesia, the collected blood was centrifuged to give plasma, the obtained plasma was diluted 2-fold with phosphate buffer, and fluorescence intensity was measured under the conditions of excitation wavelength: 485 nm, detection wavelength: 535 nm (measurement device SPECTRA MAX GEMINI EM Molecular Devices Japan). […] After completion of running, the gastrointestinal tract permeability of FD4 was evaluated in the same manner as in Example 1.

CD2F1 mice [2] = experiment: feed intake after totally exhausting treadmill exercise for 3 consecutive days; type: in vivo; conditions: male CD2F1 mice; normal diet added with cystine (2%) in place of casein for 8 days; after totally exhausting exercise for 3 consecutive days; versus exercise group; P<0.05 (FIG. 5)
Description: Athletes are known to experience gastrointestinal upset and loss of appetite in scenes where intense training such as a camp training and the like are repeated. Therefore, the improving effect of cystine on exercise-induced decrease in appetite was studied by the following test. 6-Week-old male CD2F1 mice (Charles River Laboratories Japan, Inc.) were divided into 3 groups (non-exercise group, exercise group, and exercise+2% cystine group), and a normal diet (AIN-93G composition) was given to non-exercise group and exercise group, and a normal diet (AIN-93G composition) added with cystine (2%) in place of casein was given to exercise+2% cystine group, each for 8 days. Thereafter, exercise group and exercise+2% cystine group were made to run in a treadmill to total exhaustion for 3 consecutive days, and non-exercise group was not allowed to exercise (see FIG. 4). While exercise group and exercise+2% cystine group ran, non-exercise group was fasted and deprived of water. A new feed was given every day after completion of the totally exhausting exercise, recovered the next day and the amount of the remaining feed was measured, from which feed intake was calculated.

Question: Which results are given for `N[C@@H](CSSC[C@H](N)C(=O)O)C(=O)O` [cystine]?
Answer: FD4 concentration in blood (gastrointestinal tract permeability), compared to Gln+Ex (CD2F1 mice [1]; cystine (2%) diet versus glutamine (2%) diet for 7 days, blood after 1 hr (FIG. 3)): lower FD4 concentration in blood as compared to the group (Gln+Ex); FD4 concentration in blood (gastrointestinal tract permeability), compared to Ex (CD2F1 mice [1]; normal diet added with cystine (2%) for 7 days, blood after 1 hr, versus exercise group on normal diet, P<0.05 (FIG. 3)): lower FD4 concentration in blood as compared to Ex; relative feed intake after exercise (Pre run as 100%) (CD2F1 mice [2]): significantly high as compared to the exercise group
